Laboratory results from US10011571B2, “Preparation method for aromatic heterocyclic compound used as selective JAK3 and/or JAK1 kinase inhibitor and application of aromatic heterocyclic compound” (SHENZHEN CHIPSCREEN BIOSCIENCES, LTD., priority 2014, dated 2018).

Test system: collagen-induced arthritis (CIA) model of rats
Assay: Collagen-induced arthritis (CIA) model of rats
Type: in vivo
Settings: rat CIA; for swelling degree induced by arthritis in the rats, compared to the solvent group: 40 mg/kg i.g.; for Inhibitory rate for arthritis score % / Inhibitory rate for paw volume % / Inhibitory rate for toe thickness % / Body weight growth rate %: 14 days after administration, Examples 40 mg/kg i.g. twice/day, MTX 5 mg/kg i.p. twice a week; for Body weight growth rate %: solvent = 100.0; for toxicity to the rats judged from body weight: compared to the solvent group
Description: Objective: in this test, arthritis is induced by chicken collagen in Wistar rats. After in vivo administration of the compounds of Example 7 and Example 22, the change of the disease index for arthritis in rats is evaluated to determine the therapeutic effect of the test compounds on rat arthritis.
Experimental animals: 36 female Wistar rats were purchased from the animal experiment center, Sun Yat-Sen University (Guangzhou) with the body weight ranging from 180 to 200 g at the beginning of experiment. Four groups (8 rats in each group) were used as the arthritis model, and another group (4 rats) was used as normal control.
Materials: chicken type II collagen and Freund's complete adjuvant were purchased from Beijing Biolead Science and Technology Development Co., Ltd. Positive control: methotrexat (MTX).
Preparation method: the test compounds were prepared by adding them to freshly prepared 0.2% CMC-Na+0.1% Tween-80 solution in sterile water to a desired concentration and thoroughly mixing through ultrasound.
CIA model: the chicken collagen was fully emulsified in equal volume of freud's complete adjuvant, and subcutaneously injected at the tail root of the rat on day 0 for sensitization (250 μL/rat). Another injection was performed at the tail root on day 7 for supplementary immunization (100 μL/rat). After arthritis occurred (on about day 13), the rats were randomly divided into 4 groups with 8 rats in each group. Administration started on day 14 after the first immunization, and lasted for 14 days. The limbs of a rat were visually inspected, and the severity of arthritis was scored in a range from […]: 0=normal; 1=a slight symptom, with signs, such as red and swollen ankle or wrist; 2=moderate red and swollen ankle or wrist; 3=severe red and swollen paw, including toes; 4=severe swollen joint accompanied with dysfunction; the highest score for each rat was 16. The thickness of toes of posterior limbs and the paw volume were measured at the same time.
Medication: the rats were i.g. administered with the compound of Example 7 at a concentration of 40 mg/kg twice/day; or the rats were i.g. administered with the compound of Example 22 at a concentration of 40 mg/kg twice/day. For the positive control, 5 mg/kg MTX was intraperitoneally injected twice a week. The i.g. administration of solvent was used as the negative control. The data obtained 14 days after administration and before administration were compared.

Compound	swelling degree induced by arthritis in the rats, compared to the solvent group	Inhibitory rate for arthritis score %	Inhibitory rate for paw volume %	Inhibitory rate for toe thickness %	Body weight growth rate %	toxicity to the rats judged from body weight
C=CC(=O)N(C)c1cc(Nc2ncc(Cl)c(NCCCNC(=O)c3ccc(C#N)cc3)n2)ccc1F [Example 7, N-(3-(5-chloro-2-(4-fluoro-3-(N-methylacrylamido)phenylamino)pyrimidinyl-4-amino)propyl)-4-cyano-benzamide]	significantly inhibited	75.0%	63.6%	74.3%	102.2%	no significant toxicity
C=CC(=O)N(C)c1cc(Nc2ncc(Cl)c(NCCCNC(=O)c3ccc(C(F)(F)F)cc3)n2)ccc1F [Example 22, N-(3-(5-chloro-2-(4-fluoro-3-(N-methylacrylamido)phenylamino)pyrimidinyl-4-amino)propyl)-4-trifluoromethylbenzamide]	certain inhibitory effect	25.5%	24.6%	13.9%	102.0%	no significant toxicity
